Test results from patent US7008954B1, “Th2 differentiation inhibitors” (Shionogi & Co., Ltd., priority 1999, dated 2006).

What was measured:
[1] = tested on: differentiation from Th0 cells to Th2 cells; experiment: Inhibitory effect on induction of differentiation from Th0 cells to Th2 cells (DNP-As immunized mice, popliteal lymph node, intracellular cytokine FACS); format: in vivo, BALB/c mice; conditions: for increase in the % Th2 / increase in the Th2/Th1 ratio: BALB/c mice immunized with DNP-As; for % Th1 / % Th2 / Th2/Th1: BALB/c mice immunized with DNP-As/Alum, popliteal lymph node 6 days after immunization, n = 3
Experimental: Experiment 1 Inhibitory Effect on Induction of Differentiation from Th0 Cells to Th2 Cells
In an experiment to induce the differentiation from Th0 cells to Th2 cells, 9 to 11 week-old female mice of BALB/cCrSlc purchased from Japan SLC, Inc. or of BALB/cAnNCrj purchased from Charles River Japan, Inc. were used.
In an experiment to induce the differentiation from Th0 cells to Th2 cells, a DNP-As (dinitrophenylated Ascaris protein (porcine ascarid extract protein)) was used as an antigen, 10 μg of which and 250 μg of Alum (aluminum hydroxide adjuvant) in physiological saline in the final volume of 50 μl was injected into the soles of the both hind legs of each mouse, whereby effecting immunization. In a negative control group, each animal was treated similarly by an injection of 50 μl of physiological saline. 6 Days after injection, two popliteal lymph nodes were removed from right and left knees, and passed through a metal mesh (200 mesh size) in Hanks' balanced salt solution (HBSS) to prepare a cell suspension. In the group treated with physiological saline, preparations from two animals were combined and subjected to the experiment because of a small cell number. A compound according to the invention was suspended in 0.5% methylcellulose (MC) and 0.1 ml per 20 g mouse was given orally every day over a period from the day of immunization through the 5th day. The immunized vehicle control group and the negative control group were treated with the same volume of 0.5% MC.
Cells prepared from popliteal lymph nodes of these mice were suspended at 1−2×10^6 cells/ml (1–2 ml) in an RPMI 1640 medium (containing 10% fetal bovine serum—FBS and 50 μM 2-mercaptoethanol) and supplemented with PMA (Phorbol 12-Myristate 13-Acetate) at the final concentration of 50 ng/ml and 250 ng/ml A23187 (Ca ionophore) and then incubated at 37° C. in the presence of 5% CO2. After incubating for 4 hours, Brefeldin A was added at the final concentration of 10 μg/ml and the mixture was incubated further for 2 hours. The cells were recovered and washed twice with a staining buffer (PBS containing 1% FBS and 0.1% sodium azide) and suspended in 100 μl of the staining buffer containing 5 μg/ml of Fc Block (rat anti-mouse CD 16/CD32 purified monoclonal antibody, Pharmingen) and incubated on ice for 5 minutes to block the non-specific adsorption of the labeled antibody, and then combined with an equal volume of a Cy-Chrome-labelled rat anti-mouse CD4 monoclonal antibody (Pharmingen) which had been 200-fold diluted with the staining buffer and incubated on ice for 30 minutes. After washing three times with the staining buffer, the cells were suspended in PBS and combined with an equal volume of a fixation solution (4% p-formaldehyde) and incubated at 4° C. overnight, whereby effecting the fixation. The fixed cells thus obtained were washed twice with the staining buffer and suspended in a permeabilazation buffer (PBS containing 1% FBS, 0.5% saponin and 0.1% sodium azide) and incubated on ice for 10 minutes, and then each cell sample was recovered as being divided into two equal portions. Each portion was suspended in 100 μl of the permeabilazation buffer containing 5 μg/ml Fc Block and incubated on ice for 5 minutes to block the non-specific adsorption of the labeled antibody into the cells. One portion was combined with each 100 μl of an FITC-labelled rat anti-mouse IFNγ monoclonal antibody (Pharmingen) and a PE-labeled rat anti-mouse IL-4 monoclonal antibody (Pharmingen) each had been 50-fold diluted with the permeabilazation buffer and incubated on ice for 30 minutes. The other portion, serving as a control representing the non-specific adsorption of the labeled antibody, was combined with each 100 μl of each control antibody at the same concentration, i.e., an FITC-labelled rat IgG1κ purified antibody (Pharmingen) and a PE-labeled rat IgG1κ purified antibody (Pharmingen) to effect the similar staining. […]

[2] = tested on: differentiation from Th0 cells to Th1 cells; experiment: Effect on induction of differentiation from Th0 cells to Th1 cells (mice immunized with non-viable Mycobacterium tuberculosis, popliteal lymph node, intracellular cytokine FACS); format: in vivo, C57BL/6 mice; conditions: for % Th1 / % Th2: C57BL/6N mice immunized with non-viable Mycobacterium tuberculosis, popliteal lymph node 6 days after immunization, n = 3; for effect on the increase in the % Th1: CD4 positive T cells, popliteal lymph node, C57BL/6 mice immunized with non-viable Mycobacterium tuberculosis
Experimental: In an experiment to induce the differentiation from Th0 cells to Th1 cells, 8 week-old female mice of C57BL/6NCrj purchased from Charles River Japan, Inc. were used.
On the other hand, in an experiment to induce the differentiation from Th0 cells to Th1 cells, a non-viable Mycobacterium tuberculosis H37RA (DIFCO) was suspended in physiological saline, and 125 μg/50 μl was used for immunization as described above. In the group treated with physiological saline, the preparations from 4 animals were combined and subjected to the experiment.
Cells prepared from popliteal lymph nodes of these mice were suspended at 1−2×10^6 cells/ml (1–2 ml) in an RPMI 1640 medium (containing 10% fetal bovine serum—FBS and 50 μM 2-mercaptoethanol) and supplemented with PMA (Phorbol 12-Myristate 13-Acetate) at the final concentration of 50 ng/ml and 250 ng/ml A23187 (Ca ionophore) and then incubated at 37° C. in the presence of 5% CO2. After incubating for 4 hours, Brefeldin A was added at the final concentration of 10 μg/ml and the mixture was incubated further for 2 hours. The cells were recovered and washed twice with a staining buffer (PBS containing 1% FBS and 0.1% sodium azide) and suspended in 100 μl of the staining buffer containing 5 μg/ml of Fc Block (rat anti-mouse CD 16/CD32 purified monoclonal antibody, Pharmingen) and incubated on ice for 5 minutes to block the non-specific adsorption of the labeled antibody, and then combined with an equal volume of a Cy-Chrome-labelled rat anti-mouse CD4 monoclonal antibody (Pharmingen) which had been 200-fold diluted with the staining buffer and incubated on ice for 30 minutes. After washing three times with the staining buffer, the cells were suspended in PBS and combined with an equal volume of a fixation solution (4% p-formaldehyde) and incubated at 4° C. overnight, whereby effecting the fixation. The fixed cells thus obtained were washed twice with the staining buffer and suspended in a permeabilazation buffer (PBS containing 1% FBS, 0.5% saponin and 0.1% sodium azide) and incubated on ice for 10 minutes, and then each cell sample was recovered as being divided into two equal portions. Each portion was suspended in 100 μl of the permeabilazation buffer containing 5 μg/ml Fc Block and incubated on ice for 5 minutes to block the non-specific adsorption of the labeled antibody into the cells. One portion was combined with each 100 μl of an FITC-labelled rat anti-mouse IFNγ monoclonal antibody (Pharmingen) and a PE-labeled rat anti-mouse IL-4 monoclonal antibody (Pharmingen) each had been 50-fold diluted with the permeabilazation buffer and incubated on ice for 30 minutes. The other portion, serving as a control representing the non-specific adsorption of the labeled antibody, was combined with each 100 μl of each control antibody at the same concentration, i.e., an FITC-labelled rat IgG1κ purified antibody (Pharmingen) and a PE-labeled rat IgG1κ purified antibody (Pharmingen) to effect the similar staining. After washing three times with the cell membrane permeation buffer and twice with the staining buffer, the cells were suspended in 500 μl of the staining buffer and transferred through a nylon mesh into a FACS analysis tube.
The significant difference was analyzed by Dunnett multiple comparison test and Student t test.

[3] = 2.5 mg/kg orally daily for 6 days
[4] = 10 mg/kg orally daily for 6 days
[5] = 40 mg/kg orally daily for 6 days
[6] = 40 mg/kg orally for consecutive 6 days after immunization, CD4 positive T cells, popliteal lymph node
[7] = 10 mg/kg orally for consecutive 6 days after immunization

CC(C)=CCNc1ccc(-c2cc(C)c(-c3ccc(OCC=C(C)C)nc3)cc2C)c(F)c1 [Compound I-6]
increase in the % Th2 ([1]; 10 mg/kg or higher): significantly inhibited
increase in the Th2/Th1 ratio ([1]; 10 mg/kg or higher): significantly inhibited
% Th1 [1, 3]: 0.70 ± 0.02%
% Th2 [1, 3]: 1.41 ± 0.10%
Th2/Th1 [1, 3]: 2.03 ± 0.20
% Th1 [1, 4]: 0.54 ± 0.05%
% Th2 [1, 4]: 0.15 ± 0.01 %
Th2/Th1 [1, 4]: 0.29 ± 0.02
% Th1 [1, 5]: 0.66 ± 0.02%
% Th2 [1, 5]: 0.03 ± 0.03 %
Th2/Th1 [1, 5]: 0.04 ± 0.05
% Th1 ([2]; 40 mg/kg): 1.03 ± 0.10%
% Th2 ([2]; 40 mg/kg): 0.03 ± 0.02%
effect on the increase in the % Th1 [2]: no effect

CC(C)=CCNc1ccc(-c2cc(C)c(-c3cnc(OCC=C(C)C)nc3)cc2C)c(F)c1 [Compound I-55]
increase in the % Th2 [1, 6]: significantly inhibited
increase in the Th2/Th1 ratio [1, 6]: significantly inhibited
% Th1 [1, 5]: 0.53 ± 0.05%
% Th2 [1, 5]: 0.05 ± 0.02 %
Th2/Th1 [1, 5]: 0.09 ± 0.03

COc1c(C)c(-c2ccc(NCC=C(C)C)cc2)c(C)c(C)c1-c1ccc(OCC=C(C)C)c(F)c1 [Compound I-80]
increase in the % Th2 [1, 6]: significantly inhibited
increase in the Th2/Th1 ratio [1, 6]: significantly inhibited
% Th1 [1, 5]: 0.29 ± 0.03%
% Th2 [1, 5]: 0.07 ± 0.03 %
Th2/Th1 [1, 5]: 0.27 ± 0.12
% Th1 ([2]; 40 mg/kg): 0.93 ± 0.11%
% Th2 ([2]; 40 mg/kg): 0.02 ± 0.04%
effect on the increase in the % Th1 [2]: no effect

COc1c(C)c(-c2ccc(OCC=C(C)C)c(F)c2)c(C)c(C)c1-c1ccc(NCC=C(C)C)cc1 [Compound I-89]
increase in the % Th2 [1, 7]: significantly inhibited
increase in the Th2/Th1 ratio [1, 7]: significantly inhibited
% Th1 [1, 4]: 0.23 ± 0.02%
% Th2 [1, 4]: −0.04 ± 0.00 %
Th2/Th1 [1, 4]: −0.19 ± 0.01
% Th1 ([2]; 10 mg/kg): 0.70 ± 0.20%
% Th2 ([2]; 10 mg/kg): 0.02 ± 0.06%
effect on the increase in the % Th1 [2]: no effect

COc1c(C)c(-c2ccc(NCC=C(C)C)cc2)c(C)c(C)c1-c1ccc(OCC(F)(F)F)nc1 [Compound I-90]
increase in the % Th2 [1, 6]: significantly inhibited
increase in the Th2/Th1 ratio [1, 6]: significantly inhibited
% Th1 [1, 5]: 0.40 ± 0.02%
% Th2 [1, 5]: 0.08 ± 0.03 %
Th2/Th1 [1, 5]: 0.22 ± 0.09

COc1c(C)c(-c2ccc(NCC=C(C)C)c(F)c2)c(OC)c(C)c1-c1ccc(NCC=C(C)C)nc1 [Compound I-102]
increase in the % Th2 [1, 6]: significantly inhibited
increase in the Th2/Th1 ratio [1, 6]: significantly inhibited
% Th1 [1, 5]: 0.34 ± 0.09%
% Th2 [1, 5]: −0.01 ± 0.01 %
Th2/Th1 [1, 5]: −0.05 ± 0.06
% Th1 ([2]; 40 mg/kg): 0.82 ± 0.16%
% Th2 ([2]; 40 mg/kg): 0.07 ± 0.04%
effect on the increase in the % Th1 [2]: no effect

CC(C)=CCNc1ccc(-c2cc(C)c(-c3cnc(OCC=C(C)C)nc3)cc2C)c(C)c1 [Compound I-132]
increase in the % Th2 [1, 6]: significantly inhibited
increase in the Th2/Th1 ratio [1, 6]: significantly inhibited
% Th1 [1, 5]: 0.46 ± 0.07%
% Th2 [1, 5]: 0.05 ± 0.02 %
Th2/Th1 [1, 5]: 0.12 ± 0.04

COc1c(C)c(-c2ccc(OCC(C)C)c(O)c2)c(C)c(C)c1-c1ccc(NCC=C(C)C)cc1 [Compound I-133]
increase in the % Th2 [1, 6]: significantly inhibited
increase in the Th2/Th1 ratio [1, 6]: significantly inhibited
% Th1 [1, 5]: 0.45 ± 0.03%
% Th2 [1, 5]: 0.20 ± 0.05 %
Th2/Th1 [1, 5]: 0.45 ± 0.09
